Patent US20240190854A1, “PYRIMIDINE OR PYRIDINE DERIVATIVES USEFUL AS HCN2 MODULATORS” (King's College London, priority 2021, published 2024)
Entries after “also recorded” stand apart in the source; their conditions may differ. Counter-ions that a name gives are not always drawn.

What was measured:
[1] = test system: mouse neuropathic pain model (partial sciatic nerve ligation); assay: Mouse neuropathic pain model, paw pressure (Randall Sellito test); format: in vivo
[2] = test system: mouse neuropathic pain model (partial sciatic nerve ligation); assay: Mouse neuropathic pain model (PSNL), von Frey filament; format: in vivo; conditions: for Mechanical analgesia (von Frey): day 5 after PSNL
Description: The model used was analogous to the model described in Seltzer Z, Dubner R, & Shir Y (1990), A novel behavioural model of neuropathic pain disorders produced in rats by partial sciatic nerve injury, Pain 43: 205-218). […] Sci Transl Med 9: eaam6072.
The mechanical pain threshold was measured by manual von Frey filament applied to hind paw on the operated side, using the “up-down” method.
Mechanical pain threshold was measured as in Example 133 1 day before and 8 days after partial sciatic nerve ligation (PSNL) neuropathic pain induction. The test compound was administered at a low dose of 0.2 mg/kg every two hours with a control arm of vehicle only injections.
Mechanical pain threshold was measured as in Example 133 1 day before and 5-8 days after partial sciatic nerve ligation (PSNL) neuropathic pain induction. The test compound was administered at a dose of 0.5 mg/kg twice-daily at 8 hour intervals with a control arm of vehicle only injections, and mechanical pain threshold was measured 4 hours after the first injection.

[3] = test system: Black6 mice; conditions: mouse, in vivo; cited from earlier work
[4] = test system: guinea pigs, noise-exposure tinnitus; assay: GPIAS test, noise-exposure tinnitus model; format: in vivo, guinea pig
Text: (§1) Tinnitus in guinea pigs was monitored using the gap induced inhibition of the acoustic startle (GPIAS) test (see FIG. 5). GPIAS is reduced when tinnitus was present; see Berger, J. I. et al. Effects of the cannabinoid CB1 agonist ACEA on salicylate ototoxicity, hyperacusis and tinnitus in guinea pigs. Hearing research, (2017), and Coomber, B. et al. Neural changes accompanying tinnitus following unilateral acoustic trauma in the guinea pig. Eur J Neurosci 40, 2427-2441, (2014).
(§2) In FIG. 5, sound stimulus (above) and corresponding pinna reflex (below) are shown in freely moving guinea pigs. Stimuli with no gap and gap are presented in a randomised order. Traces contaminated by movement (the upper trace in “no gap”) were removed before analysis.
The noise-exposure model is more clinically relevant than the salicylate model, as it parallels a common cause of tinnitus in humans. A second important point is that it is long-term, while tinnitus induced by salicylate is rapidly reversed following salicylate exposure.

[5] = CNS penetration: plasma, brain and auditory nerve levels; format: in vivo; conditions: guinea pig, auditory nerve, other: injection; 30 min after injection, n=2, preliminary; read-out: Ratio of total concentrations auditory nerve : plasma
Description: Ivabradine in guinea pig plasma, brain (somatosensory cortex) and auditory nerve were assayed at 30 min after injection, the time used in Example 130.

[6] = test system: guinea pigs, salicylate-induced tinnitus; assay: GPIAS test, short-term salicylate tinnitus model; format: in vivo, guinea pig; conditions: salicylate 350 mg/kg i.p.; ivabradine 5 mg/kg s.c.
Text: as §1, §2
Tinnitus was induced within 1-2 hours in humans by high doses of salicylate. A similar short-term tinnitus model was implemented in guinea pigs by i.p. injection of salicylate. In all animals, salicylate caused behavioural inhibition of GPIAS (see bar 2 in FIG. 6).
Salicylate (350 mg/kg, i.p.) impairs behavioural gap detection 2 h after salicylate administration (see bar 2 in of FIG. 6). Gap detection was restored by blocking HCN channels with ivabradine (5 mg/kg, s.c.).

[7] = test system: mice, normal hearing; format: in vivo; conditions: adult mice; Example 29 at 20 mg/kg ip
[8] = biological target: HCN1 (Homo sapiens (Human), UniProt O60741); assay: HCN1 current assay using the Sophion Qube; format: cell-based; conditions: Sophion Qube protocol; read-out: SQ HCN1 IC50
Sequence of HCN1 (O60741 whole entry, species assumed): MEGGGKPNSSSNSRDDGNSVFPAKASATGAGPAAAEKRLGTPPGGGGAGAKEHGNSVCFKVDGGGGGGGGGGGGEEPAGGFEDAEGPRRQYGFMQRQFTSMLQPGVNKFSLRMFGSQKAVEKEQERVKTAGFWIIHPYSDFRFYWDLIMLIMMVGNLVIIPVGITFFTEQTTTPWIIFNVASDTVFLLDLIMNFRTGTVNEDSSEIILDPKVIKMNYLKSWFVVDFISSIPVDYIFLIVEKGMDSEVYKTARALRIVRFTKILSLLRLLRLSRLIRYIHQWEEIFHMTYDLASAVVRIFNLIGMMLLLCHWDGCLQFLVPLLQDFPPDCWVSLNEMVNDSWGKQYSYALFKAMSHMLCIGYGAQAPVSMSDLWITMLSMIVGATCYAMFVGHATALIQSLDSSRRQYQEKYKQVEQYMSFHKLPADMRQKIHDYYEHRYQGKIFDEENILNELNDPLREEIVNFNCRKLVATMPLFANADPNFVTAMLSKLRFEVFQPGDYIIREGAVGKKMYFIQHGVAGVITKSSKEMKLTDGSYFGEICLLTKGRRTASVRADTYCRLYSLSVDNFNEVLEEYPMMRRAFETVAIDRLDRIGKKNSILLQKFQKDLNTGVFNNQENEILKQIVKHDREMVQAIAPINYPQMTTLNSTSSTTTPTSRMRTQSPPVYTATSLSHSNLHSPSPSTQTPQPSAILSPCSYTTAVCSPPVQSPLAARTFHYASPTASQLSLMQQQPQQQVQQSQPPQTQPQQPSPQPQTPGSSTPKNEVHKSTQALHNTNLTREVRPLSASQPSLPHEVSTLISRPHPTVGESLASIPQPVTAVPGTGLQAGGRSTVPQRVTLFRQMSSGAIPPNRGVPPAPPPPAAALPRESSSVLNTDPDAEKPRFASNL
Description: (§3) Example 126B, Using the Sophion Qube
(§4) Solutions for recording HCN currents were:
(§5) This voltage protocol was applied every 20 seconds for the duration of the experiment. Both the vehicle (0.3% DMSO) and full block (3 mM CsCl) addition periods were applied for 10 experimental sweeps each.
(§6) The current amplitudes were measured by subtracting metric A from metric B (see FIG. 2) with inhibition calculated by normalising to the vehicle addition (0.3% DMSO) and full inhibition by 3 mM CsCl in the same well.
(§7) In total, compound was applied to the well for 600 seconds.

[9] = biological target: HCN4 (Homo sapiens (Human), UniProt Q9Y3Q4); assay: HCN4 current assay using the Sophion Qube; format: cell-based; conditions: Sophion Qube protocol; read-out: SQ HCN4 IC50
Sequence of HCN4 (Q9Y3Q4 whole entry, species assumed): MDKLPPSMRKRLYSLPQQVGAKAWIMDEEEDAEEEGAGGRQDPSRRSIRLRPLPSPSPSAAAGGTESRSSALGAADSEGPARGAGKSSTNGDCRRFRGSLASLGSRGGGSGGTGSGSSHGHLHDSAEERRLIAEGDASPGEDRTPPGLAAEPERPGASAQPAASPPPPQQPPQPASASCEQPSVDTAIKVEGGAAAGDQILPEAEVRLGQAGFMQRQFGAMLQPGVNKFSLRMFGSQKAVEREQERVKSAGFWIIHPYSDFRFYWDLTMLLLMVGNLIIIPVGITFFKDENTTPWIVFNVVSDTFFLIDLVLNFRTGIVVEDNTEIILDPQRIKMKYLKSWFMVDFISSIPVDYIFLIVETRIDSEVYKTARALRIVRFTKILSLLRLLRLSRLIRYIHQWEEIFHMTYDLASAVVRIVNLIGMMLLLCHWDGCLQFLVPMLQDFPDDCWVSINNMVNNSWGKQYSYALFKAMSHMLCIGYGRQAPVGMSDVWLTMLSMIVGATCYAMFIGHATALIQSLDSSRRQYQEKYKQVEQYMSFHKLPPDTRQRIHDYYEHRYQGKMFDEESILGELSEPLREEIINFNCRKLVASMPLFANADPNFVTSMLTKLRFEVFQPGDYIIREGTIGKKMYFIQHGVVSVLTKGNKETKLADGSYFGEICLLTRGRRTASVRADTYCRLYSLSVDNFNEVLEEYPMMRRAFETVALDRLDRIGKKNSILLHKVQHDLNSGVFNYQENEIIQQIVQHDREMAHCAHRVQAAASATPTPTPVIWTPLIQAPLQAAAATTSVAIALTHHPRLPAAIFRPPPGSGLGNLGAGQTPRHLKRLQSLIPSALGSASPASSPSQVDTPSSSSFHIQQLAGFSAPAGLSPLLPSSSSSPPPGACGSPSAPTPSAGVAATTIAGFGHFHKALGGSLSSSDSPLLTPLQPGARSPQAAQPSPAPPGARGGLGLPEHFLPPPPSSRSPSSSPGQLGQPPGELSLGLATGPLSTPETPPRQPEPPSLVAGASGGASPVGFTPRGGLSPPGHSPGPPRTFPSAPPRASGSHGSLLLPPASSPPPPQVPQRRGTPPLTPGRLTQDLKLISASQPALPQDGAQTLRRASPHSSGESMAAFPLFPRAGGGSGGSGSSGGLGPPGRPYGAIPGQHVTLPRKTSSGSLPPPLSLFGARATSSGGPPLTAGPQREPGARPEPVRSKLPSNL
Description: as §3, §4, §5, §6, §7

[10] = biological target: hNav1.5 (Homo sapiens (Human), UniProt Q14524)
Sequence of hNav1.5 (Q14524 whole entry): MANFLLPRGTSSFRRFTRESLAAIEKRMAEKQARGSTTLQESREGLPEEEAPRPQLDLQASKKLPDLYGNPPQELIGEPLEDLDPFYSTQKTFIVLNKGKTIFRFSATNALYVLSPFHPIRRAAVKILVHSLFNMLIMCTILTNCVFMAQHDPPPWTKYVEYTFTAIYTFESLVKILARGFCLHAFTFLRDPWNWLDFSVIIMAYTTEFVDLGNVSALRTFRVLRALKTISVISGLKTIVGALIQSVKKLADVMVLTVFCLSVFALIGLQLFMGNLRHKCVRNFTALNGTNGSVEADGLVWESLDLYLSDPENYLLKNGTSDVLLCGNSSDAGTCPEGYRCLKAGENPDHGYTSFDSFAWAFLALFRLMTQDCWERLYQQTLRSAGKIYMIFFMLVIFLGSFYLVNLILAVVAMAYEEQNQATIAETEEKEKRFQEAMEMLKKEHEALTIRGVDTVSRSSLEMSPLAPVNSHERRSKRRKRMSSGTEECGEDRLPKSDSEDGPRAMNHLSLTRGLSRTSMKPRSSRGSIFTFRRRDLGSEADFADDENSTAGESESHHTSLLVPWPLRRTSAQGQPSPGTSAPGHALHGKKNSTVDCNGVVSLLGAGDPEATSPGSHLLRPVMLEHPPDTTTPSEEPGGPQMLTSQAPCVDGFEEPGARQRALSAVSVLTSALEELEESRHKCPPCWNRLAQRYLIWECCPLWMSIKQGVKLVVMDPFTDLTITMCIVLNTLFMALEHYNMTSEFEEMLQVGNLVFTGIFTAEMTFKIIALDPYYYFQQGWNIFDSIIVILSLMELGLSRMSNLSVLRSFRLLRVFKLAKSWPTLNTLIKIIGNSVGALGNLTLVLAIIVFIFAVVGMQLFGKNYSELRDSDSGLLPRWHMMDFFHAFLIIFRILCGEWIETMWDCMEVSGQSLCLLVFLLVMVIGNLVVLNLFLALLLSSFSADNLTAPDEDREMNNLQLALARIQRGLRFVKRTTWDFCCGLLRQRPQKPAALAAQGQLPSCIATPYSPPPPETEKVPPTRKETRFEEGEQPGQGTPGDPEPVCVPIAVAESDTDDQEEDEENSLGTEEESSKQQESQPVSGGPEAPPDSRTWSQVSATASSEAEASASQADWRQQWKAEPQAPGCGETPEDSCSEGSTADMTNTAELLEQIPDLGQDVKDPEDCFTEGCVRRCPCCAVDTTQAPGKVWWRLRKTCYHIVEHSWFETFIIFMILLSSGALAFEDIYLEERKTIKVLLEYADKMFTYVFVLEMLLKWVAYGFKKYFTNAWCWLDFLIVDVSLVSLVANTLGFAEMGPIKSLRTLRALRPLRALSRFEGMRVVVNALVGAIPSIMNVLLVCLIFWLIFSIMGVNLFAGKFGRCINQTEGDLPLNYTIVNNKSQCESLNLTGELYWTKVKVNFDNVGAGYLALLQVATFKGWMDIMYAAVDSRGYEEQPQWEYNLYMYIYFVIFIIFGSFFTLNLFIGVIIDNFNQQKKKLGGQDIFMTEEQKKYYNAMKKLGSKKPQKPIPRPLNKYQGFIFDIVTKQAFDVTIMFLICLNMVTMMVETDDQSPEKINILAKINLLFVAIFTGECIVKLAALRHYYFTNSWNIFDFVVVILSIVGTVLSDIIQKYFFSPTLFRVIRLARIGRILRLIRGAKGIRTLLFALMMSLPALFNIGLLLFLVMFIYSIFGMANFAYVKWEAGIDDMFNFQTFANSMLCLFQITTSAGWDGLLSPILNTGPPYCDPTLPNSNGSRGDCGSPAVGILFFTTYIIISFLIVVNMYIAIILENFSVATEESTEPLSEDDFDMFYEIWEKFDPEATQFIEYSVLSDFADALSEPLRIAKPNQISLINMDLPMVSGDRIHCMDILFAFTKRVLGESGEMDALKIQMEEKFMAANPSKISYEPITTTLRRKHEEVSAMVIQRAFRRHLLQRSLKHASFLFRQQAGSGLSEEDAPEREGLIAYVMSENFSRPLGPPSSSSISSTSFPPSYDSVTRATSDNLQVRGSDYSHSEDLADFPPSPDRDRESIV
Description: The cells were held at −100 mV followed by a depolarising step to −10 mV for 100 milliseconds before stepping back to −100 mV, this represents 1 experimental sweep.
For tonic block (0.1 Hz), the peak currents evoked by the step to −10 mV were measured for the analysis of the percentage inhibition by test compounds. For use-dependent block (4 Hz), the peak current evoked at the 20th depolarising step to −10 mV was measured for the analysis of the percentage inhibition by test compounds. Peak currents were first normalised to the vehicle addition (0.3% DMSO) in the same well.

[11] = biological target: MDR1 (P-glycoprotein) (Homo sapiens (Human), UniProt P08183); assay: in vitro; conditions: dog, MDCK-MDR1, pH 7.4
Description: Test compounds were added (10 μM, 0.1% DMSO final, n=2) to donor compartments of the Transwell plate assembly in assay buffer (Hanks balanced salt solution supplemented with 25 mM HEPES, adjusted to pH 7.4) for both apical to basolateral (A>B) and basolateral to apical (B>A) measurements. A parallel series of incubations were performed in the presence of the transporter inhibitor elacridar (5 μM) which was added to both compartments in the transwell plate. Incubations were performed at 37° C., with samples removed from both donor and acceptor chambers at T=0 and 1 hour for recovery assessment and compound analysed by mass spectrometry (LC-MS/MS), including an analytical internal standard.
Apparent permeability (Papp) values were determined from the relationship:
Where V is the volume of each Transwell compartment (apical 125 μL, basolateral 600 μL), and concentrations are the relative MS responses for compound (normalized to internal standard) in the donor chamber before incubation and acceptor chamber at the end of the incubation.
Area=area of cells exposed for drug transfer (0.33 cm2).
Efflux ratios (Papp B>A/Papp A>B) were calculated for each compound from the mean Papp values in each direction. […] The efflux ratios were also calculated in the same way from the runs carried out in the presence of the inhibitor. The net flux is the ratio of the efflux in the absence of inhibitor to that in the presence of inhibitor.
Lucifer Yellow (LY) was added to the apical buffer in all wells to assess viability of the cell layer.
Compound recovery from the wells was determined from MS responses (normalized to internal standard) in donor and acceptor chambers at the end of incubation compared to response in the donor chamber pre-incubation.

[12] = biological target: hERG channel (Homo sapiens (Human), UniProt Q12809); assay: hERG assay using Sophion Qube; format: cell-based; conditions: Sophion Qube protocol; read-out: SQ hERG IC50
Description: Example 127B, Using Sophion Qube
Solutions for recording hERG currents were:
This voltage protocol was applied every 15 seconds for the duration of the experiment. Both the vehicle and 1st compound addition periods were applied for 10 sweeps. The 2nd compound addition period was applied for 20 sweeps. The compound concentration was added to the test well twice to assure complete exchange of the external buffer with the test compound. In total, compound was applied to the well for 450 seconds.

[13] = biological target: HCN2 (Homo sapiens (Human), UniProt Q9UL51); assay: HCN2 current assay using the Sophion Qube; format: cell-based; conditions: Sophion Qube protocol; read-out: SQ HCN2 IC50
Sequence of HCN2 (Q9UL51 whole entry): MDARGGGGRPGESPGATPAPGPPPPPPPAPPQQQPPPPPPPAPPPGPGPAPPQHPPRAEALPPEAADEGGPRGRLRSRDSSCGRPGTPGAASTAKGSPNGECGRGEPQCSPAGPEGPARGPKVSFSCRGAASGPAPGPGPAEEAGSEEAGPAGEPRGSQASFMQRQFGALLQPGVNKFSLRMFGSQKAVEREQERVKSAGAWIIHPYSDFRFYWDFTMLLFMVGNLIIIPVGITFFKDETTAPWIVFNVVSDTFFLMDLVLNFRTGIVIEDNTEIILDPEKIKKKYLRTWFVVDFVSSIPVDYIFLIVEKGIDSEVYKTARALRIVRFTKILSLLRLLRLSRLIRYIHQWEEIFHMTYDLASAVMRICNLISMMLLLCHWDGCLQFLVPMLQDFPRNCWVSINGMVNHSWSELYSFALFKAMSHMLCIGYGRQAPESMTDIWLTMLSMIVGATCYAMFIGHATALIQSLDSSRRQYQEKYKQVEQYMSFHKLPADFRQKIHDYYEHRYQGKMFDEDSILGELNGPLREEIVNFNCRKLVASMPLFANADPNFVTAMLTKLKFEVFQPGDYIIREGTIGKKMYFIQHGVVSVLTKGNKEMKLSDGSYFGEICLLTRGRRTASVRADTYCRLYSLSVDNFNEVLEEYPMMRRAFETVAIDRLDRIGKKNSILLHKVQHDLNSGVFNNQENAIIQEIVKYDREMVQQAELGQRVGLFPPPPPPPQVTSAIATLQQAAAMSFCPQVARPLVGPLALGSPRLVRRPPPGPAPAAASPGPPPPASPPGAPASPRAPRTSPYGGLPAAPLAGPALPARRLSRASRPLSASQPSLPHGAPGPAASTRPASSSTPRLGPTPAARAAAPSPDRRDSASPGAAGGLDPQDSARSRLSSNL
Description: as §3, §4, §5, §6, §7

For `CS(=O)(=O)c1ccc(F)c(C[C@H](N)c2ccccc2-c2noc3ccccc23)n1` [Example 5, (S)-1-[2-(Benzo[d]isoxazol-3-yl)phenyl]-2-[3-fluoro-6-(methylsulfonyl)pyridine-2-yl]ethan-1-amine hydrochloride], which “Analgesia, paw pressure (Randall Sellito)” value ([1]; 0.1 mg/kg i.p.) is on record?
The value was “partial analgesia”.

What about the “Analgesia, paw pressure (Randall Sellito)” value ([1]; 0.5 mg/kg i.p.) of the same compound?
Its value is “full analgesia”.

What about the “Mechanical analgesia (von Frey)” value ([2]; 0.1 mg/kg i.p.) of the same compound?
Its value is “partial analgesia”.

And the “Mechanical analgesia (von Frey), first dose” value ([2]; 0.2 mg/kg every two hours, first dose)?
The value was “only partial analgesia”.

What about the “Mechanical analgesia (von Frey), subsequent doses” value ([2]; 0.2 mg/kg every two hours, subsequent doses) of the same compound?
The value was “increase in analgesia towards full analgesia”.

And the “Mechanical analgesia (von Frey)” value ([2]; 0.5 mg/kg i.p.)?
Its value is “full analgesia”.

And the “Mechanical analgesia (von Frey), successive doses over 4 days” value ([2]; 0.5 mg/kg twice-daily at 8 hour intervals, 4 days)?
Its value is “full and sustained analgesia”.

What about the “Mechanical analgesia (von Frey), 4 hours after first injection” value ([2]; 0.5 mg/kg twice-daily at 8 hour intervals, first injection) of the same compound?
The value was “little analgesia”.

And the ED50 ([2]; Mus musculus, ip, maximal analgesia, n=3-4 mice, read-out: Analgesic ED50)?
The ED50 was 0.17 mg/kg.

Which “Therapeutic window between analgesia and bradycardia” value [3] does the source give for `COc1cc2c(cc1OC)CC(=O)N(CCCN(C)C[C@H]1Cc3cc(OC)c(OC)cc31)CC2` [ivabradine, Ivabradine] here?
Its value is “little therapeutic window”.

What about the “Effect on GPIAS in noise-exposed guinea pigs showing no behavioural tinnitus” value ([4]; control experiments, n=3) of the same compound?
The value was “without effect on GPIAS; also recorded: without effect on gap detection”.

And the “Effect on reduced GPIAS after noise exposure” value ([4]; guinea pigs with impaired GPIAS, 5 mg/kg s.c.)?
The value was “rapidly and completely reversed; also recorded: fully restores GPIAS”.

What about the Kp at 30 min [5] of the same compound?
Its Kp at 30 min is 0.57.

What about the “Effect on GPIAS (behavioural gap detection)” value [6] of the same compound?
Its value is “reversed GPIAS; also recorded: restored”.

What about the “Effect on ABR threshold or latency” value [7] of the same compound?
Its value is “no significant difference”.

Which results are given for `Cc1ccc(S(C)(=O)=O)nc1C[C@H](N)c1ccccc1-c1noc2cc(F)ccc12` [Example 24, (S)-1-[2-(6-Fluorobenzo[d]isoxazol-3-yl)phenyl]-2-(3-methyl-6-methylsulfonylpyridin-2-yl)ethan-1-amine hydrochloride]?
IC50 [8]: 4.2 µM; IC50 [9]: 7.8 µM; IC50 [10]: 22.4 µM; efflux ratio at 1 h, 10 μM [11]: 10.4; IC50 [12]: 3.4 µM; IC50 [13]: 1.3 µM

For `CS(=O)(=O)c1ccc(F)c(C[C@H](N)c2ccccc2-c2noc3c(F)cccc23)n1` [Example 26, (S)-1-[2-(7-Fluorobenzo[d]isoxazol-3-yl)phenyl]-2-(3-fluoro-6-methylsulfonylpyridin-2-yl)ethan-1-amine hydrochloride], which IC50 [8] is on record?
The IC50 was 25.7 µM.

And the IC50 [9]?
Its IC50 is > 30 µM.

And the IC50 [10]?
The IC50 was 19.2 µM.

And the efflux ratio at 1 h, 10 μM [11]?
The efflux ratio at 1 h, 10 μM was 4.2.

And the IC50 [12]?
Its IC50 is 15.1 µM.

What about the IC50 [13] of the same compound?
Its IC50 is 1.8 µM.
